Experimental data: patent US20180153830A1, “SELECTIVE INHIBITORS OF UNDIFFERENTIATED CELLS” (Yissum Research Development Company of the Hebrew …, priority 2012, published 2018)

Legend:
[1] = test system: phosphorylated eIF2α in hPSCs; assay: Phospho-eIF2α immunoblot, ES cells; format: cell-based, human; settings: 20 μM PluriSIn #1 or 100 nm A939572
Procedure: For immunoblotting, 10% polyacrylamide gel was used for protein separation and detection. The gel was transferred to a nitrocellulose membrane and antibody hybridization and chemiluminescence were performed according to standard procedures. The primary antibodies in this analysis were rabbit anti-phosphorylated-eIF2a (1:250, Cell Signaling Technology), rabbit anti caspase-3 (1:1,000, Cell Signaling Technology), mouse anti β-catenin (1:10,000, BD Biosciences) and mouse anti-α-tubulin (1:50,000, Sigma-Aldrich). Horseradish peroxidase-conjugated anti-rabbit and anti-mouse secondary antibodies were obtained from Jackson Immunoresearch Laboratories.
To further study the significance of UPR, XBP1 mRNA splicing and eIF2α phosphorylation, hallmarks of UPR, were further examined. Human ES cells and ES-derived differentiated cells were treated with PluriSIn #1 for 12 hours, and expression of the spliced isoform sXBP1 was determined by quantitative PCR and by immunoblotting, as described in the Materials and Methods section. Gene expression change conferred by dithiothreitol ([…]) was used as a positive control.

[2] = test system: protein synthesis in H9 embryonic stem cells; assay: 35S-Met metabolic labeling of protein synthesis, ES cells; format: cell-based, human; settings: 12 hours; 20 μM PluriSIn #1 or 100 nm A939572
Procedure: H9 embryonic stem cells were seeded in Matrigel™ pre-coated 6-well tissue culture plates at a density of 2×10^5 cells/well, and cultured using mTeSR1 defined medium. BJ fibroblasts were seeded in 6-well tissue culture plate at the same density, and cultured with DMEM supplemented with 10% FBS, penicillin (50 U/ml) and streptomycin (50 μg/ml). Cells were treated for 12 hours with either 20 μM PluriSIn #1 (isonicotinic acid N′-phenylhydrazide) or with 0.2% DMSO. Cells were then washed with PBS, and replenished with methionine-deficient medium for 1 hour. Metabolic labeling of the cells was then performed for 1 hour with 10 μCi of […] methionine in 1 ml/well, in the presence of 20 μM PluriSIn #1 or 0.2% DMSO. Cells were washed with PBS containing 10 mM methionine, and were then lysed in 0.4 ml of 30% ice-cold trichloroacetic acid (TCA) containing 10 mM methionine for 15 minutes. […] Total protein concentration was determined using a Bradford Protein Assay (Sigma-Aldrich), and the radioactivity measurements were normalized accordingly. […]
The similarity between PSIs and PluriSIn #1 and #6 is consistent with the fact that UPR can lead to translational attenuation. In order to confirm this link, the effect of PluriSIn #1 treatment on protein synthesis was determined. […]

[3] = test system: CSES2-SO2/3-derived differentiated cells; assay: Fluorescence microscopy imaging of differentiated CSES2-SO2/3 cells; format: cell-based, human; settings: 24 hours of exposure
Procedure: High content imaging of CSES2-SO2/3 fluorescent cells (mCherry+ or EGFP+) was performed in black clear-bottom 384-well assay plates (Falcon BD), using the Opera high-content screen imaging platform (PerkinElmer). Otherwise, light and fluorescence imaging of all cells was performed in 24-well, 6-well or 10 cm CELLSTAR® plates (Greiner Bio-One), using an Olympus CellR imaging station. Light imaging of developing mouse embryos was performed in 35 mm culture dishes (Falcon BD), using an Olympus IX70 microscope.
CSES2-SO2/3 is a genetically-labeled cell line that expresses mCherry under the promoter of the pluripotency hallmark gene OCT-4, and GFP under the promoter of the early endodermal marker SOX17. Therefore, these cells are red while undifferentiated, and become green upon their differentiation into the endodermal lineage [Kopper & Benvenisty, Stem Cell Research 8:335-345 (2011)]. Green early endodermal progenitor cells were generated from the red undifferentiated cells, using an 8-day differentiation protocol as described by Duan et al. [Stem Cells 28:674-686 (2010)].
In order to further verify the selectivity of the PluriSIns, and rule out any potential assay-related interference, undifferentiated and differentiated CSES2-SO2/3 cells were subjected to microscopy imaging after 24 hours of exposure to PluriSIns.

[4] = test system: human ES cells; assay: Global gene expression analysis (microarray); format: cell-based; settings: 12 hours
Procedure: Human embryonic stem cells, and early endodermal progenitors derived from human embryonic stem cells, were treated for 12 hours with the compounds PluriSIn #1 (isonicotinic acid N′-phenylhydrazide) or PluriSIn #6 (2-hydroxy-2-(thiophen-2-yl)-2-phenylacetic acid 4-methyl-N′-phenylhydrazide), or with 0.2% DMSO control. Total RNA was extracted using a PerfectPure™ RNA Cultured Cell Kit (5 Prime) according to the manufacturer's protocol, and analyzed using a Human Genome U133A 2.0 microarray platform (Affymetrix); washing and scanning were performed according to the manufacturer's protocol. Original microarray data are accessible at the NCBI Gene Expression Omnibus (GEO) database under the accession number GSE37040.
Arrays were normalized using the MASS algorithm in the Affymetrix Expression Console. Probe sets absent in both control and treatment conditions were filtered out by the MASS Absent/Present call. Probe sets with expression values lower than 50 were raised to this level. Using a 2-fold threshold, a list of differentially expressed genes was comprised for each pair of conditions: embryonic stem cells treated with PluriSin #1 vs. control, ESCs treated with PluriSIn #6 vs. control, and endodermal progenitor cells treated with PluriSIn #1 vs. control. […]

CNC(=O)c1cccc(NC(=O)N2CCC(Oc3ccccc3Cl)CC2)c1 [A939572, 4-(2-chlorophenoxy)-N-(3-(methylcarbamoyl)-phenyl)piperidine-1-carboxamide, reference compound]
levels of phosphorylated eIF2α, ES cells [1]: increased levels
decrease in protein synthesis, ES cells [2]: approximately 50%

O=C(NNc1ccccc1)c1ccncc1 [PluriSIn #1, isonicotinic acid N′-phenylhydrazide]
effect on differentiated cells [3]: without exhibiting any detectable effect
levels of phosphorylated eIF2α, ES cells [1]: increased levels
decrease in protein synthesis, ES cells [2]: approximately 30%
gene expression changes associated with ER stress and UPR [4]: considerable gene expression changes

Cc1ccc(NNC(=O)C(O)(c2ccccc2)c2cccs2)cc1 (centres unmarked) [PluriSIn #6, 2-hydroxy-2-(thiophen-2-yl)-2-phenylacetic acid 4-methyl-N′-phenylhydrazide]
effect on differentiated cells [3]: without exhibiting any detectable effect
gene expression changes associated with ER stress and UPR [4]: considerable gene expression changes
